Measured values published in patent US9084719B2, “Compositions and method for treating infection in cattle and swine” (Intervet Inc., priority 2003, dated 2015).
Read-outs that look alike come from different tables or passages of the source.

Experiment: Plasma levels of florfenicol / pharmacokinetic analysis in cattle after subcutaneous administration
Format: in vivo
Details: bovine, sc, 40 mg/kg, subcutaneous florfenicol solution, 40 mg per kg of body weight
Procedure: Twenty-four head of cattle were used in the study as described below and were administered the formulations of the present invention. Serial blood samples were drawn at time 0 prior to dosing, then at 0.5, 1, 3, 6, 9, 12, 24, 36, 48, 60 and 72 hours post injection. The animals received one of the following treatment regimens.
The study was carried out in bovines of approximately 6 months of age or more that weigh about 125 kg or more. Selection was based on health status appearance, tractability and body weight. […] Animals that had received medication or have participated in another study in the previous 14 days were excluded from this study.
Plasma Levels of florfenicol were taken as follows: Approximately 10 mL of blood was collected from each calf by jugular venipuncture into a Vacutainer® tube containing sodium EDTA and processed for plasma.
Pharmacokinetic Analysis was carried out as follows: Plasma concentrations of florfenicol was reported in the appropriate units (i.e. μg/ml or ng/mL). Plasma florfenicol concentration versus time data was graphically presented for each individual animal, and as mean concentrations for the overall sample population.

Cmax (FIG. 1, six cattle, read-out: Mean peak concentration (Cmax)): 6370 ng/mL | Tmax (FIG. 1, six cattle, read-out: Mean time to peak concentration (Tmax)): 5.5 h | Cmax (FIG. 1, six cattle, read-out: Range of peak concentration (Cmax)): 5080 to 7000 ng/mL | Tmax (FIG. 1, six cattle, read-out: Range of time to peak concentration (Tmax)): 3 to 6 h | Cmax (FIG. 2, six cattle, read-out: Mean peak concentration (Cmax)): 4250 ng/mL | Tmax (FIG. 2, six cattle, read-out: Mean time to peak concentration (Tmax)): 3.67 h | Cmax (FIG. 2, six cattle, read-out: Range of peak concentration (Cmax)): 3460 to 5000 ng/mL | Tmax (FIG. 2, six cattle, read-out: Range of time to peak concentration (Tmax)): 1 to 9 h
SMILES: CS(=O)(=O)c1ccc([C@@H](O)[C@@H](CF)NC(=O)C(Cl)Cl)cc1 [florfenicol, D-(threo)-1-p-methylsulfonyl phenyl-2-dichloroacetamido-3-fluoro-1-propanol]
